The source of these data is ChEMBL document CHEMBL6109139, “Rational Design of the First Dual Agonist at Trace Amine-Associated Receptor 1 and 5-HT2C Receptors Based on Binding Pocket Similarity for the Treatment of Schizophrenia and Alzheimer's Disease-Related Psychosis” (J Med Chem, 2025).

The source made the active and inactive calls. No cut-off for these calls is given here. Bounds are passed on as bounds.

The test system of series [1] is Mus musculus. In words: Antipsychotic activity in amyloid beta (1 to 42) induced hyperlocomotion in mouse model assessed as decrease in total distance traveled at 10 mg/kg by open field test. It counts as functional, organism-based.
Series [2] deals with Mus musculus. Put plainly: Antipsychotic activity in amyloid beta(1 to 42) induced cognitive impairment in mouse model assessed as increase in discrimination ratio of novel objects at 1 mg/kg, IG measured after 24 hrs by novel object recognition test. It counts as functional, organism-based.
Series [3] has as its system Mus musculus. In words: Antipsychotic activity against DOI-induced head-twitch response in mouse assessed as reduction in head-twitch response at 10 mg/kg, IG measured for 30 mins. It counts as functional, organism-based.
Series [4] deals with Mus musculus. In words: Antipsychotic activity in amyloid beta(1 to 42) induced cognitive impairment in mouse model assessed as reduction in exploration time at 1 mg/kg, IG measured after 24 hrs by novel object recognition test. It counts as functional, organism-based.
The target in the next series is Cytochrome P450 2C19 (Homo sapiens, UniProt P33261). Put plainly: Inhibition of CYP2C19 in human liver microsomes in presence of NADPH by LC-MS/MS analysis. It counts as ADME, Microsome. A general note: Liver microsomes are vesicles of endoplasmic reticulum, rich in cytochrome P450 enzymes.
Series [5] is described as follows: Plasma protein binding in dog assessed as unbound fraction by LC-MS/MS analysis. It counts as ADME, cell-free, Canis lupus familiaris.
Series [6] can be described thus: Inhibition of CYP2D6 in human liver microsomes in presence of NADPH by LC-MS/MS analysis. It counts as ADME, Microsome.
The next series addresses Cytochrome P450 2C9 (Homo sapiens, UniProt P11712). In words: Inhibition of CYP2C9 in human liver microsomes in presence of NADPH by LC-MS/MS analysis. It counts as ADME, Microsome.
Series [7] is described as follows: Efflux ratio of apparent permeability across apical to basolateral side in human Caco-2 cells at 2 uM by LC-MS/MS analysis. It counts as ADME, cell-based. For orientation: Passage across Caco-2 layers is used to estimate intestinal permeability.
Another series deals with Cytochrome P450 1A2 (Homo sapiens, UniProt P05177). In words: Inhibition of CYP1A2 in human liver microsomes in presence of NADPH by LC-MS/MS analysis. It counts as ADME, Microsome.
A short description of series [8]: Drug uptake in male Sprague-Dawley rat brain assessed as parent compound remaining measured after 6 hrs. It counts as ADME, tissue-based. To be noted: read-out: Activity.
Series [9] is described as follows: Metabolic stability in human liver microsomes assessed as intrinsic clearance at 1 uM incubated for 60 mins by LC-MS/MS analysis. To be noted: read-out: CLH. It counts as ADME, Microsome.
Series [10] is described as follows: Plasma protein binding in rat assessed as unbound fraction by LC-MS/MS analysis. It counts as ADME, cell-free.
In the next series the target is Cytochrome P450 2B6 (Homo sapiens, UniProt P20813). In words: Inhibition of CYP2B6 in human liver microsomes in presence of NADPH by LC-MS/MS analysis. It counts as ADME, Microsome.
Another series concerns the target Cytochrome P450 3A4 (Homo sapiens, UniProt P08684). In words: Inhibition of CYP3A4 in human liver microsomes in presence of NADPH by LC-MS/MS analysis. It counts as ADME, Microsome.
Series [11] deals with T1, 5-hydroxytryptamine receptor 2C (Homo sapiens, UniProt P28335).
T1 sequence (P28335 whole entry): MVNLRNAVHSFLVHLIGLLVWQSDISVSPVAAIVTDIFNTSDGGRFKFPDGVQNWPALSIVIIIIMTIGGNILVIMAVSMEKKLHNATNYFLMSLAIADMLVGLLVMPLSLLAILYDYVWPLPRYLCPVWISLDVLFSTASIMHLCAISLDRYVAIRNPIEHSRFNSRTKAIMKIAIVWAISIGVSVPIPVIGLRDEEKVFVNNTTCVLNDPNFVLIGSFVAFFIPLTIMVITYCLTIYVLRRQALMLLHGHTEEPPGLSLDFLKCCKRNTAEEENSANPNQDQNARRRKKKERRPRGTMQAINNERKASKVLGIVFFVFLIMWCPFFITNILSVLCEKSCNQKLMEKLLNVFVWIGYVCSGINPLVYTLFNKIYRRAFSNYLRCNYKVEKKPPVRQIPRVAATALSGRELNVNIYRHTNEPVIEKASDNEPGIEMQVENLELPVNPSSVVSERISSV
In words: Partial agonist activity at recombinant human 5-HT2CR expressed in HEK293 cells incubated for 2 hrs by FLIPR calcium assay. It counts as functional, cell-based.

Series [12] is described as follows: Plasma protein binding in human assessed as unbound fraction by LC-MS/MS analysis. It counts as ADME, cell-free.
The target of a further series is Cytochrome P450 2C8 (Homo sapiens, UniProt P10632). In words: Inhibition of CYP2C8 in human liver microsomes in presence of NADPH by LC-MS/MS analysis. It counts as ADME, Microsome.
Series [13] can be described thus: Metabolic stability in rat liver microsomes assessed as intrinsic clearance at 1 uM incubated for 60 mins by LC-MS/MS analysis. It counts as ADME, Microsome. To be noted: read-out: CLH.
Series [14] can be described thus: Apparent permeability across apical to basolateral side in human Caco-2 cells at 2 uM by LC-MS/MS analysis. It counts as ADME, cell-based.
The subject of series [15] is Mus musculus. Put plainly: Antidepressant activity in chronic social defeat stress induced depressive C57BL/6J mouse model assessed as increase in time of interaction zone at 10 mg/kg, IG measured after 15 mins by open field test. It counts as functional, organism-based.

Sequence of Cytochrome P450 2B6 (P20813 whole entry): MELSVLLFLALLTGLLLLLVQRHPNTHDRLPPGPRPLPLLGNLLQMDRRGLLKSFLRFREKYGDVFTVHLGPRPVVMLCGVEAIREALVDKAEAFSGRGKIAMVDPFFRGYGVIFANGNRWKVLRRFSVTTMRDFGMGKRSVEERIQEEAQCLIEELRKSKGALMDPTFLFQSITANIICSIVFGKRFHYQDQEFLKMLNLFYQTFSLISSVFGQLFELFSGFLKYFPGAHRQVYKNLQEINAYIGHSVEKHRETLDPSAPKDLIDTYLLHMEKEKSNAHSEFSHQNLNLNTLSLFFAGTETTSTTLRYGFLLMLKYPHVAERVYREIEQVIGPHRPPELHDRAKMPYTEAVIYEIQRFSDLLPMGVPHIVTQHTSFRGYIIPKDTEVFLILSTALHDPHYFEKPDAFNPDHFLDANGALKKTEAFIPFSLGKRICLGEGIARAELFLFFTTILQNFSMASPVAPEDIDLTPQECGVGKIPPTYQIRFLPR
Sequence of Cytochrome P450 1A2 (P05177 whole entry): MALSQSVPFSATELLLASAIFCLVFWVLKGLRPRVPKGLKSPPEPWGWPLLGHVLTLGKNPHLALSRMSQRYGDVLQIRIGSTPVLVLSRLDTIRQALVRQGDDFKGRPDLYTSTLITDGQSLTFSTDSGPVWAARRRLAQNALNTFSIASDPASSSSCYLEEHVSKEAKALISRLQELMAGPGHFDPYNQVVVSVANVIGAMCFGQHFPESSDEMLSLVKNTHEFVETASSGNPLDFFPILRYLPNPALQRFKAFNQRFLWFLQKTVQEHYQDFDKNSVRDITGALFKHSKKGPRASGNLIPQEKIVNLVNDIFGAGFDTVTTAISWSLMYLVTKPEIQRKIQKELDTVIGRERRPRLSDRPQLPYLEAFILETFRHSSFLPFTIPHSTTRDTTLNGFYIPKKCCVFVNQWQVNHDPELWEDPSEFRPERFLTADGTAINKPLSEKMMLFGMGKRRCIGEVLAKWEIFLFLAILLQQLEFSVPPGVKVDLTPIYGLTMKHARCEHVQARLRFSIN
Sequence of Cytochrome P450 2C8 (P10632 whole entry): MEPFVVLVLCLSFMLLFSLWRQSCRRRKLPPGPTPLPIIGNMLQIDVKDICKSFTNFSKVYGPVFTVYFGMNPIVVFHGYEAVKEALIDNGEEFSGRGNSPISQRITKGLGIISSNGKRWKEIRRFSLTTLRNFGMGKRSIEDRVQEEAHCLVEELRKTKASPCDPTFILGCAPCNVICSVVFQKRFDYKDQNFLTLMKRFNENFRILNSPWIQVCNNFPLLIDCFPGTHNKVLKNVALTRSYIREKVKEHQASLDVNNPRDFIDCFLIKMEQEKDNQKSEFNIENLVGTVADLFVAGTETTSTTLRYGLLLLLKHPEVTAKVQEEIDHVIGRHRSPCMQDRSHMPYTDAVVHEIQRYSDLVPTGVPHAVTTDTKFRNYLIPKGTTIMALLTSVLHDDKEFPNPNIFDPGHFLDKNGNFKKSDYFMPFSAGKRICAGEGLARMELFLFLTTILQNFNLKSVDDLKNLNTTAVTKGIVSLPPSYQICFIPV
Sequence of Cytochrome P450 2C9 (P11712 whole entry): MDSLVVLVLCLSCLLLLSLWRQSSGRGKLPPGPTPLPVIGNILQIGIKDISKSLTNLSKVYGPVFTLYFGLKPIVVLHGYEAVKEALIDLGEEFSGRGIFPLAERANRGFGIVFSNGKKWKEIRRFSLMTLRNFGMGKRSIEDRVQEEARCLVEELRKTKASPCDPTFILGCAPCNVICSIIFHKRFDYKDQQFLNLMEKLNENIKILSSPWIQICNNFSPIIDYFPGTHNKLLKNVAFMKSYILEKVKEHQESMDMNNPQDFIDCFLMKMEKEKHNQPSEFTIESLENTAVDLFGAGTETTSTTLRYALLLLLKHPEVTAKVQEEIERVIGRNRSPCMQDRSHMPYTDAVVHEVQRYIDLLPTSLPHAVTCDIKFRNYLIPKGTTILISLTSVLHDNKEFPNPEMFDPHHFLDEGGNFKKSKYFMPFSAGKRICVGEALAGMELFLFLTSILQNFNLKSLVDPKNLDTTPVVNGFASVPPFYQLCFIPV
Sequence of Cytochrome P450 2C19 (P33261 whole entry): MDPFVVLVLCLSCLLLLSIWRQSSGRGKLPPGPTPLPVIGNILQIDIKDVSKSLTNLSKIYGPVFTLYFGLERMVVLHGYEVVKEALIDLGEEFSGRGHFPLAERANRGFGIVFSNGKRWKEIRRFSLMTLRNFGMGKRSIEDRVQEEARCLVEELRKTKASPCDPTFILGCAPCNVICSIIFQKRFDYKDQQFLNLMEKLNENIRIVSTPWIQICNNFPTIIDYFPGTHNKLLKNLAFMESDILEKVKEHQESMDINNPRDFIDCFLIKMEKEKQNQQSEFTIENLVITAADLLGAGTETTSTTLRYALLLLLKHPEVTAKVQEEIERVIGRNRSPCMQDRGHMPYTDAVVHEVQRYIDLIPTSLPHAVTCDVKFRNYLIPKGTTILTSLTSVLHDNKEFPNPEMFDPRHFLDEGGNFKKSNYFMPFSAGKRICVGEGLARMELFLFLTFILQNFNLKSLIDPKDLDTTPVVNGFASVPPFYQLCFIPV
Sequence of Cytochrome P450 3A4 (P08684 whole entry): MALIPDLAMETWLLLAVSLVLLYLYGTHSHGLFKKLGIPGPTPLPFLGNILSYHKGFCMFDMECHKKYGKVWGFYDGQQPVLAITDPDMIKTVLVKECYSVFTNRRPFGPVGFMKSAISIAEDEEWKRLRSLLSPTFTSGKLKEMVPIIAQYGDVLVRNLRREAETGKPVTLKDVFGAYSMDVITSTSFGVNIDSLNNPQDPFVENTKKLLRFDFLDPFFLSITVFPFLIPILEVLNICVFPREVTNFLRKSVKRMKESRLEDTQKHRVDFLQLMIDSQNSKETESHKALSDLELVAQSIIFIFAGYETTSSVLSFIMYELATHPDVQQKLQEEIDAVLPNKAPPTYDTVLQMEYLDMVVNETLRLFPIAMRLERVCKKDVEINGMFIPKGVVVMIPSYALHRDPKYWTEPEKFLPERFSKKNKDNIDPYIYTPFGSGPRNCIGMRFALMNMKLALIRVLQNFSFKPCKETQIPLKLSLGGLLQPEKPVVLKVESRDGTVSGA

Turning to `O=c1ccc2ccc(OCCCCN3CCN(c4cccc5sccc45)CC3)cc2[nH]1`, the outcome with Mus musculus [1], in the series with Mus musculus [3] and in the series with Mus musculus [4] was Active. Moreover, in the series with Mus musculus [2], the outcome was inactive.

On to `COc1ccsc1C1CNCCO1` (stereo in doubt; 25a), for which the IC50 (on Cytochrome P450 2C19; in [6]; on Cytochrome P450 2C9; on Cytochrome P450 1A2; at Cytochrome P450 2B6; at Cytochrome P450 3A4) was greater than 50 µM each time. The IC50 – broadly, the concentration needed to halve the response being measured – at Cytochrome P450 2C8 is greater than 50 µM. In addition, the values for the fraction unbound in series [5], in [10] and in series [12] were 0.73, 0.872 and 0.747, respectively. Besides, the efflux ratio (usually the permeability from basolateral to apical divided by that in the opposite direction, in the common usage) at 2 µM in series [7] worked out at 0.6. For the same molecule, the remaining at 6 h in [8] was less than 20%. For the same molecule, the CLint scaled at 1 µM in [9] was less than 6.8 mL/min/kg; in [13] it was less than 13.5 mL/min/kg. Besides, the EC50 (as a rule, the midpoint of the concentration-response curve) in [11] amounted to 4.39 µM. Also, the Papp A→B – broadly, how fast a substance crosses the layer from the apical side – at 2 µM in [14] is 46 ×10⁻⁶ cm/s.

As to `Cc1cc2c(s1)Nc1ccccc1N=C2N1CCN(C)CC1`, the outcome with Mus musculus [15] was Active.
